Source: PMC6150245 (Molecules : A Journal of Synthetic Chemistry and Natural …, 2017)
≈ marks a conversion by molar mass, not a printed value. Bridge positions count the residues as written; N and C are the ends. Peptide text beside a SMILES is read from it. I, II: the chains in the order shown.

How the values were obtained:
S. aureus SA33 = assay type: cell-based, Staphylococcus aureus; conditions: for MBC: S. aureus SA33, sub-culture on MH agar, 99.9% death
Experimental: (§1) After confirming antibacterial activity, the peptides were tested against gram-positive and gram-negative multidrug-resistant bacteria, including strains of clinical origin. The peptides, p-BthTX-I, des-Lys^12/(p-BthTX-I)2, and Lys^13-(p-BthTX-I)2 were serially diluted (512–1 μM) in cation-adjusted BBL MH II broth (CAMHB; Becton, Dickson and Co., Sparks, MD, USA) as described by CLSI. Bacteria at 5.0 × 10^5 CFU/mL were added to the media and incubated for 24 h at 37 °C. […] Assays were performed in duplicates, and sterile broth was used as the negative control. To determine the minimal bactericidal concentration (MBC), 100 µL from each well of the MIC assay plates that inhibited bacterial growth were sub-cultured onto MH agar (MHA) plates. […] If the ratio of MBC/MIC was >4, the activity of the peptide was considered bacteriostatic, as described previously.

E. faecium VRE16 = assay type: cell-based, Enterococcus faecium; conditions: for MIC: E. faecium VRE16 (vancomycin resistant), CAMHB, 24 h, 37 °C, duplicate; for MBC: E. faecium VRE16, sub-culture on MH agar, 99.9% death
Experimental: as §1

E. faecium HSJRP8 = assay type: cell-based, Enterococcus faecium; conditions: for MIC: E. faecium HSJRP8 (daptomycin resistant), CAMHB, 24 h, 37 °C, duplicate; for MBC: E. faecium HSJRP8, sub-culture on MH agar, 99.9% death
Experimental: as §1

Serum stability assay = assay type: in vitro ADME; conditions: 25% human male serum, 37 °C
Experimental: Crude peptides were purified by semi-preparative HPLC on a Shimadzu system (Tokyo, Japan) using a C18 reversed phase column (10 × 250 mm, Phenomenex, Torrance, CA, USA). Solvent A contained 0.045% trifluoroacetic acid (TFA) in water. Elution was achieved using a linear gradient (5–35%) of solvent B (0.036% TFA in acetonitrile) for 120 min at 5 mL/min. The purity of the peptides was determined by analytical HPLC on a Shimadzu system using a C18 column (4.6 × 150 mm, Phenomenex, Torrance, CA, USA) with a linear gradient of solvent B (5–95%) for 30 min at 1 mL/min. Liquid chromatography-mass spectrometry (LC/MS) was performed using a C18 column (2.0 × 30 mm, Shimadzu) attached to analytical HPLC and an amaZon ion trap mass spectrometer (Bruker Daltonics) using ESI. Peptides were eluted using a linear gradient of solvent B (5–95%) for 15 min at 0.2 mL/min.
Peptide stability assays were performed in diluted serum as previously described with minor modifications. First, 2 mL of 25% human male serum was centrifuged at 3000× g for 10 min; the supernatant was collected and incubated for 15 min at 37 °C. Next, peptides were added to the serum to a final concentration of 100 µM. Then, 200 µL of samples were collected at different time points during the assays, which were performed in duplicate. Analyses were performed by LC/MS and analytical HPLC, as described above.

E. coli CA4 = assay type: cell-based, Escherichia coli; conditions: for MIC: E. coli CA4 (commensal), CAMHB, 24 h, 37 °C, duplicate; for MBC: E. coli CA4, sub-culture on MH agar, 99.9% death
Experimental: as §1

E. coli ATCC35218 = assay type: cell-based, Escherichia coli; conditions: for MIC: E. coli ATCC35218, CAMHB, 24 h, 37 °C, duplicate; for MBC: E. coli ATCC35218, sub-culture on MH agar, 99.9% death
Experimental: as §1

S. aureus ATCC25923 = experiment: MIC, microdilution in MH broth (initial screening); assay type: cell-based, Staphylococcus aureus; conditions: 24 h, 37 °C, resazurin, triplicate
Experimental: (§2) The minimum inhibitory concentrations (MIC) were determined following the Clinical and Laboratory Standards Institute (CLSI) recommendations. Antibacterial and antifungal activity tests were performed using the microdilution method. For initial screening, peptides were tested against C. albicans ATCC18804, E. coli ATCC25922, and S. aureus ATCC25923. Briefly, bacterial cells in MH broth (80 μL aliquots containing 1.5 × 10^7 CFU) were incubated with synthetic peptides (serial dilution from 512 to 1 μM) dissolved in Milli-Q water. After incubation for 24 h at 37 °C, the microtiter plates were analyzed visually by addition of resazurin. For the antifungal assays, the culture medium was RPMI 1640 buffered with L-glutamine (pH 7.2), 0.165 M morpholinepropanesulfonic acid (MOPS), and 2% glucose. Cell suspensions (final concentration of 1 × 10^3–2.5 × 10^3 CFU/mL) were inoculated on a microdilution plate previously prepared with serially diluted synthetic peptides (128–1 μM). The plates were incubated for 48 h at 37 °C. Each assay was performed in triplicates. Additionally, amphotericin B and fluconazole were used as the control drugs. MIC was defined as the lowest concentration of peptide at which no growth was detected.

[1] = system: K. pneumoniae ATCCBAA1705; assay type: cell-based, Klebsiella pneumoniae; conditions: for MIC: K. pneumoniae ATCCBAA1705 (KPC), CAMHB, 24 h, 37 °C, duplicate; for MBC: K. pneumoniae ATCCBAA1705, sub-culture on MH agar, 99.9% death
Experimental: as §1

K. pneumoniae NDM-1 = assay type: cell-based, Klebsiella pneumoniae; conditions: for MIC: K. pneumoniae NDM-1, CAMHB, 24 h, 37 °C; for MBC: K. pneumoniae NDM-1, sub-culture on MH agar, 99.9% death
Experimental: as §1

E. coli ATCC25922 = experiment: MIC, microdilution in MH broth (initial screening); assay type: cell-based, Escherichia coli; conditions: 24 h, 37 °C, resazurin, triplicate
Experimental: as §2

human red blood cells = experiment: Hemolysis assay; assay type: cell-based; conditions: 1% (v/v) human erythrocytes in Tris-saline pH 7.4, 1 h, 37 °C, absorbance 405 nm, triplicate
Experimental: Peptide hemolysis assays were performed as previously described by Castro et al.. Briefly, freshly prepared human red blood cells (RBCs) were washed three times with 0.01 M Tris-HCl (pH 7.4) containing 0.15 M NaCl (Tris-saline). A suspension of 1% (v/v) erythrocytes was made with packed RBCs resuspended in Tris-saline. Peptides were dissolved in Tris-saline at an initial concentration of […] and serially diluted in the same buffer to determine the concentration that triggered 50% hemolysis (HC50). As the positive control (100% lysis), 1% (v/v) Triton X-100 solution was used. After 1 h of incubation at 37 °C, the samples were centrifuged at 3000× g for 5 min. Then, 100 µL aliquots of the supernatant were transferred to 96-well microplates, and the absorbance was determined at 405 nm. The assay was performed in triplicates.

S. epidermidis ATCC35984 = assay type: cell-based, Staphylococcus epidermidis; conditions: for MIC: S. epidermidis ATCC35984, CAMHB, 24 h, 37 °C, duplicate; for MBC: S. epidermidis ATCC35984, sub-culture on MH agar, 99.9% death
Experimental: as §1

SMILES | MBC (S. aureus SA33) [µM] | MIC (E. faecium VRE16) [µM] | MBC (E. faecium VRE16) [µM] | MIC (E. faecium HSJRP8) [µM] | MBC (E. faecium HSJRP8) [µM] | MIC (E. coli CA4) [µM] | MBC (E. coli CA4) [µM] | MIC (E. coli ATCC35218) [µM] | MBC (E. coli ATCC35218) [µM] | MIC (S. aureus ATCC25923) [µM] | MIC [1] [µM] | MBC [1] [µM] | MIC (K. pneumoniae NDM-1) [µM] | MBC (K. pneumoniae NDM-1) [µM] | MIC (E. coli ATCC25922) [µM] | HC50 (peptide concentration that produced 50% hemolysis) (human red blood cells) [µM] | MIC (S. epidermidis ATCC35984) [µM] | MBC (S. epidermidis ATCC35984) [µM] | also measured
CC(C)C[C@H](NC(=O)[C@H](Cc1c[nH]cn1)NC(=O)[C@H](Cc1ccc(O)cc1)NC(=O)[C@H](CCCNC(=N)N)NC(=O)[C@H](Cc1ccc(O)cc1)NC(=O)[C@H](CCCCN)NC(=O)[C@@H](N)CCCCN)C(=O)N[C@@H](CCCCN)C(=O)N1CCC[C@H]1C(=O)N[C@@H](Cc1ccccc1)C(=O)N[C@@H](CSSC[C@H](NC(=O)[C@H](Cc1ccccc1)NC(=O)[C@@H]1CCCN1C(=O)[C@H](CCCCN)NC(=O)[C@H](CC(C)C)NC(=O)[C@H](Cc1c[nH]cn1)NC(=O)[C@H](Cc1ccc(O)cc1)NC(=O)[C@H](CCCNC(=N)N)NC(=O)[C@H](Cc1ccc(O)cc1)NC(=O)[C@H](CCCCN)NC(=O)[C@@H](N)CCCCN)C(=O)O)C(=O)O [des-Lys^12/Lys^13-(p-BthTX-I)2] (I: H-KKYRYHLKPFC-OH / II: H-KKYRYHLKPFC-OH; disulfide I:11-II:11) | 256 (≈ 759 µg/mL) | 16 (≈ 47.4 µg/mL) | 64 (≈ 190 µg/mL) | 8 (≈ 23.7 µg/mL) | 32 (≈ 94.8 µg/mL) | 64 (≈ 190 µg/mL) | 128 (≈ 379 µg/mL) | 64 (≈ 190 µg/mL) | 256 (≈ 759 µg/mL) | 128 (≈ 379 µg/mL) | 32 (≈ 94.8 µg/mL) | 64 (≈ 190 µg/mL) | 256 (≈ 759 µg/mL) | 512 (≈ 1520 µg/mL) | 16 (≈ 47.4 µg/mL) | >128 | 32 (≈ 94.8 µg/mL) | 32 (≈ 94.8 µg/mL) | MIC (S. aureus SA33; S. aureus SA33 (MRSA, tigecycline resistant), CAMHB, 24 h, 37 °C): 128 µM (≈ 379 µg/mL); Incubation time in human serum after which further degradation products were observed (Serum stability assay; mass spectrometry, data not shown): 30 h; Incubation time in human serum after which the peptide remained intact (stable) (Serum stability assay; product formed from (p-BthTX-I)2 100 µM, LC/MS and HPLC): 24 h
CC(C)C[C@H](NC(=O)[C@H](Cc1c[nH]cn1)NC(=O)[C@H](Cc1ccc(O)cc1)NC(=O)[C@H](CCCNC(=N)N)NC(=O)[C@H](Cc1ccc(O)cc1)NC(=O)[C@H](CCCCN)NC(=O)[C@@H](N)CCCCN)C(=O)N[C@@H](CCCCN)C(=O)N1CCC[C@H]1C(=O)N[C@@H](Cc1ccccc1)C(=O)N[C@@H](CSSC[C@H](NC(=O)[C@H](Cc1ccccc1)NC(=O)[C@@H]1CCCN1C(=O)[C@H](CCCCN)NC(=O)[C@H](CC(C)C)NC(=O)[C@H](Cc1c[nH]cn1)NC(=O)[C@H](Cc1ccc(O)cc1)NC(=O)[C@H](CCCNC(=N)N)NC(=O)[C@H](Cc1ccc(O)cc1)NC(=O)[C@H](CCCCN)NC(=O)[C@@H](N)CCCCN)C(=O)N[C@@H](CCCCN)C(=O)N[C@@H](CCCCN)C(=O)O)C(=O)N[C@@H](CCCCN)C(=O)N[C@@H](CCCCN)C(=O)O [(p-BthTX-I)2] | 512 (≈ 1780 µg/mL) | 32 (≈ 111 µg/mL) | >512 | 8 (≈ 27.8 µg/mL) | >512 | 256 (≈ 890 µg/mL) | 512 (≈ 1780 µg/mL) | 512 (≈ 1780 µg/mL) | 512 (≈ 1780 µg/mL) | 64 (≈ 222 µg/mL) | 256 (≈ 890 µg/mL) | 512 (≈ 1780 µg/mL) | 256 (≈ 890 µg/mL) | 512 (≈ 1780 µg/mL) | 4 (≈ 13.9 µg/mL) | >128 | 16 (≈ 55.6 µg/mL) | 64 (≈ 222 µg/mL) | Incubation time after which the peptide was completely degraded in human serum (Serum stability assay; peptide 100 µM, analytical HPLC (C18) and LC/MS, duplicate): 30 min
